This is an account of results in patent US9834558B2, “Substituted bridged urea analogs as sirtuin modulators” (GLAXOSMITHKLINE LLC, priority 2013, dated 2017).

Where a name gives a salt, the structure may show the parent alone.

For data set [1], the target named is T1, full-length hSIRT1 wild-type (Homo sapiens, UniProt Q96EB6).
T1 construct: Full-length human SIRT1 (hSIRT1) proteins were expressed with a C-terminal His6 tag; His6 (C); made in house
T1 sequence (Q96EB6 1-747): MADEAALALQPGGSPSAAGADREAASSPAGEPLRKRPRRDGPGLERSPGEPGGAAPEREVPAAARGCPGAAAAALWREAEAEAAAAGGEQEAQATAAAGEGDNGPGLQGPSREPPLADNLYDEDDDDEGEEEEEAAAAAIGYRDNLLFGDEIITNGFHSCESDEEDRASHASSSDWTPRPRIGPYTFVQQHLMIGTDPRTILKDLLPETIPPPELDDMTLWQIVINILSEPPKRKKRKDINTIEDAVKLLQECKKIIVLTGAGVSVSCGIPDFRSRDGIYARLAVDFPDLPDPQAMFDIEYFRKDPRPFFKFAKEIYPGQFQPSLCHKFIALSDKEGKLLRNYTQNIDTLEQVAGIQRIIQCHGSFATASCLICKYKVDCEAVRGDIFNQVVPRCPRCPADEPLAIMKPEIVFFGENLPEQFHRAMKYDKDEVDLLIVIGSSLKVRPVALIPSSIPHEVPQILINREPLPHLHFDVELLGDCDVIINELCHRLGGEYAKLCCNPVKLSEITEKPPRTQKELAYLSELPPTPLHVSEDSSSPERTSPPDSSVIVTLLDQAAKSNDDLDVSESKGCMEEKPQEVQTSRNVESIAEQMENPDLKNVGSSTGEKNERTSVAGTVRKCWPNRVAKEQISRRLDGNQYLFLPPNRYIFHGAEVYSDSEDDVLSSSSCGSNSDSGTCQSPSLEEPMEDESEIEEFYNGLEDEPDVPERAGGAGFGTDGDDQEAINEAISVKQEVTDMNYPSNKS
In words: SIRT1 activation and inhibition assays (OAcADPr mass spectrometry assay), wild-type enzyme. The class given is biochemical.
Description: Final concentrations of the PNC1/GDH coupling system components used were 20 units/mL bovine GDH (Sigma-Aldrich), 1 uM yeast PNC1, 3.4 mM a-ketoglutarate, and 220 μM NADH or NADPH. An extinction coefficient of 6.22 mM^−1 cm^−1 and a pathlength of 0.81 cm was used to convert the absorbance at 340 nm to product concentration for the 150 uL reactions used.
Substrate KM determinations were performed by varying one substrate concentration at a fixed, saturating concentration of the second substrate. SIRT1 activation and inhibition assays were run in reaction buffer with 0.05% BSA at 25° C. and analyzed using the OAcADPr assay. Enzyme and compound were pre-incubated for 20 minutes before addition of substrates. […] The dose-dependence of five compounds was tested and the fold-activation data were described by Eq. 1
[formula] where vx/v0 is the ratio of the reaction rate in the presence (vx) versus absence (v0) of activator (X), RVmax is the relative velocity at infinite activator concentration, EC50 is the concentration of activator required to produce one-half RVmax and b is the minimum value of vx/v0.

The next data set concerns the target T2, SIRT1 (Homo sapiens, UniProt Q96EB6).
T2 sequence (Q96EB6 1-747): T1 sequence (Q96EB6 1-747)
Description: Trp mass spectrometry assay of SIRT1 activation. The following applies: Trp peptide assay; for TRP Activity (EC1.5): EC1.5 = concentration that results in 150% activation of SIRT1; for TRP MAX RESP (percent maximum fold activation) / Emax: maximum activity relative to control (100%); for Emax: read-out: TRP MAX RESP (percent maximum fold activation). The class given is biochemical. The essentials:
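N-terminal His-tagged human SIRT1 (10 nM, E. coli BL21(DE3)) with 0.5 μM Ac-RHKK(Ac)W-NH2 peptide and 120 μM βNAD+, 25 min at 25 °C in HEPES pH 7.5, formic acid stop. OAADPR or deacetylated peptide quantified by mass spectrometry; EC1.5 (50% activity increase over control) and Percent Maximum Activation reported.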

As for `O=C(Nc1ccccn1)N1c2nc(-c3cccc(C(F)(F)F)c3)ccc2N2CC[C@H]1C2` [Example 7], the RVmax fold shift in data set [1] is reported as 1.00.

With `Cc1cnc2c(NC(=O)N3c4nc(-c5cccc(C(F)(F)F)c5)ccc4N4CC[C@H]3C4)cccc2n1` [Example 8], in data set [1], the RVmax fold shift is recorded as 1.00.

As for `O=C(Nc1ccccn1)N1c2nc(N3CCC[C@H](C(F)(F)F)C3)ccc2N2CCC[C@H]1C2` [drawing 1118, (9S)-N-(pyridin-2-yl)-5-[(3S)-3-(trifluoromethyl)piperidin-1-yl]-1,6,8-triazatricyclo[7.3.1.0 {2,7}]trideca-2(7),3,5-triene-8-carboxamide], at SIRT1, the “TRP Activity (EC1.5)” value is recorded as “A (A (EC1.5<1 μM))” and the “TRP MAX RESP (percent maximum fold activation)” value is listed as “A (A (Fold activation ≧150%))”.

`O=C(Nc1ccccn1)N1c2nc(N3CCC[C@H](C(F)(F)F)C3)ccc2N2CCC[C@H]1C2` [drawing 1172, (9S)-N-(pyridin-2-yl)-5-[(3S)-3-(trifluoromethyl)piperidin-1-yl]-1,6,8-triazatricyclo[7.3.1.0 {2,7}]trideca-2(7),3,5-triene-8-carboxamide]: at SIRT1, the “TRP Activity (EC1.5)” value was “B (B (EC1.5 1-25 μM))” and the Emax is more than 150%.

With `O=C(Nc1ccc(F)cn1)N1c2nc(N3CCC[C@H](C(F)(F)F)C3)ccc2N2CCC[C@H]1C2` [drawing 1177, (9S)-N-(5-fluoropyridin-2-yl)-5-[(3S)-3-(trifluoromethyl)piperidin-1-yl]-1,6,8-triazatricyclo[7.3.1.0 {2,7}]trideca-2(7),3,5-triene-8-carboxamide], at SIRT1, the “TRP Activity (EC1.5)” value is listed as “A (A (EC1.5<1 μM))” and the Emax is more than 150%.

With `O=C(Nc1ccc(F)cn1)N1c2nc(N3CCC[C@H](C(F)(F)F)C3)ccc2N2CCC[C@H]1C2` [drawing 1208, (9S)-N-(5-fluoropyridin-2-yl)-5-[(3S)-3-(trifluoromethyl)piperidin-1-yl]-1,6,8-triazatricyclo[7.3.1.0 {2,7}]trideca-2(7),3,5-triene-8-carboxamide], on SIRT1, the “TRP Activity (EC1.5)” value is reported as “B (B (EC1.5 1-25 μM))” and the “TRP MAX RESP (percent maximum fold activation)” value is “A (A (Fold activation ≧150%))”.

For `O=C(Nc1ccccn1)N1c2nc(N3CC[C@H](C(F)(F)F)C3)ccc2N2CCC[C@H]1C2` [drawing 1225, (9S)-N-(pyridin-2-yl)-5-[(3S)-3-(trifluoromethyl)pyrrolidin-1-yl]-1,6,8-triazatricyclo[7.3.1.0 {2,7}]trideca-2(7),3,5-triene-8-carboxamide hydrochloride], on SIRT1 (hydrochloride), the “TRP Activity (EC1.5)” value is recorded as “A (A (EC1.5<1 μM))”. Also, at SIRT1, the Emax is more than 150%.

For `O=C(Nc1cnccn1)N1c2nc(N3CCO[C@H](C(F)(F)F)C3)ccc2N2CC[C@H]1C2` [drawing 1226, (9S)-N-(pyrazin-2-yl)-5-[(2S)-2-(trifluoromethyl)morpholin-4-yl]-1,6,8-triazatricyclo[7.2.1.0 {2,7}]dodeca-2(7),3,5-triene-8-carboxamide], at SIRT1, the “TRP Activity (EC1.5)” value is “B (B (EC1.5 1-25 μM))” and the Emax is more than 150%.

On to `O=C(Nc1cnccn1)N1c2nc(N3CCO[C@H](C(F)(F)F)C3)ccc2N2CC[C@H]1C2` [drawing 1227, (9S)-N-(pyrazin-2-yl)-5-[(2S)-2-(trifluoromethyl)morpholin-4-yl]-1,6,8-triazatricyclo[7.2.1.0 {2,7}]dodeca-2(7),3,5-triene-8-carboxamide], for which, on SIRT1, the “TRP Activity (EC1.5)” value is “A (A (EC1.5<1 μM))” and the “TRP MAX RESP (percent maximum fold activation)” value is on record as “A (A (Fold activation ≧150%))”.

With `COC(=O)CNC(=O)c1ccc2c(n1)N(C(=O)Nc1ccccn1)[C@H]1CCN2C1` [methyl 2-{[(9S)-8-[(pyridin-2-yl)carbamoyl]-1,6,8-triazatricyclo[7.2.1.0^{2,7}]dodeca-2(7),3,5-trien-5-yl]formamido}acetate], at SIRT1, the “TRP Activity (EC1.5)” value is on record as “B (B (EC1.5 1-25 μM))” and the Emax is more than 150%.

On to `COC(=O)c1cc(-c2ccc3c(n2)N(C(=O)Nc2cnccn2)[C@H]2CCN3C2)ccn1` [methyl 4-[(9S)-8-[(pyrazin-2-yl)carbamoyl]-1,6,8-triazatricyclo[7.2.1.0 {2,7}]dodeca-2(7),3,5-trien-5-yl]pyridine-2-carboxylate], for which, on SIRT1, the “TRP Activity (EC1.5)” value is reported as “B (B (EC1.5 1-25 μM))” and the Emax was more than 150%.
